Data set [1] has as its target T1, fMet-Leu-Phe receptor (Homo sapiens, UniProt P21462).
T1 sequence (P21462 whole entry): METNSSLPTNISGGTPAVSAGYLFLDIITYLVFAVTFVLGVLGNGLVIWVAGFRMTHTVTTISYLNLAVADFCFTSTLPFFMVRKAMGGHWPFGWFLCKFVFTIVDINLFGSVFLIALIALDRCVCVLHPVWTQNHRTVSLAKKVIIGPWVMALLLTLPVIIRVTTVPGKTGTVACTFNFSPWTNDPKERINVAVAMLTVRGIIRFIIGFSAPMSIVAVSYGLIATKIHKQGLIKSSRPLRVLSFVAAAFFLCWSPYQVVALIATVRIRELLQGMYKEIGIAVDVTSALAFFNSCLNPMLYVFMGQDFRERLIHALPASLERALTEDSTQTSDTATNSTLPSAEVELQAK
In words: Antagonist activity against human FPR1 expressed in human HL-60 cells assessed as inhibition of fMLF-induced calcium mobilization preincubated for 30 mins followed by fMLF addition and measured every 5s for 240s by Fluo4AM dye based scanning fluorimetric analysis. It counts as functional, cell-based. A general note: A change in cytosolic calcium serves as a functional read-out for many receptors and channels.

For data set [2], the target named is T2, N-formyl peptide receptor 2 (Homo sapiens) (UniProt P25090).
T2 sequence (whole entry): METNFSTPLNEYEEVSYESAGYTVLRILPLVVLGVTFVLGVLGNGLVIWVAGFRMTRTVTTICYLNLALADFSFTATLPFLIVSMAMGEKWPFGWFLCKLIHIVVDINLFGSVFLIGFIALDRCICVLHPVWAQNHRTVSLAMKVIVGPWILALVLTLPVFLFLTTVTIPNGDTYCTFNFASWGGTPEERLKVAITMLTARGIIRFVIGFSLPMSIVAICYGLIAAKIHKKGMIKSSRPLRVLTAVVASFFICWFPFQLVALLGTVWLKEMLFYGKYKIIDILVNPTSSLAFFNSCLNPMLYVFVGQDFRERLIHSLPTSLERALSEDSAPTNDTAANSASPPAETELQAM
The experiment in a line: Antagonist activity against human FPR2 expressed in human HL-60 cells assessed as inhibition of WKYMVM-induced calcium mobilization preincubated for 10 mins followed by WKYMVM addition and measured every 5s for 240s by Fluo4AM dye based scanning fluorimetric analysis. It counts as functional, cell-based. As to conditions: time 840.0 sec.

Data set [3] can be described thus: Metabolic stability of the compound in rat liver microsomes assessed as parent compound remaining at 10 uM preincubated for 10 mins followed by NADPH addition and measured after 30 mins by LC-MS analysis. The format is ADME, Microsome. As to conditions: time 40 min, read-out: Stability.
Data set [4] addresses T1, fMet-Leu-Phe receptor. In words: Antagonist activity against human FPR1 expressed in human HL-60 cells assessed as inhibition of fMLF-induced calcium mobilization preincubated for 10 mins followed by fMLF addition and measured every 5s for 240s by Fluo4AM dye based scanning fluorimetric analysis. The format is functional, cell-based.
Data set [5] relates to NCI-N87. In words: Induction of apoptosis in human NCI-N87 cells assessed as viable cells at 5 uM measured after 48 hrs by Muse Annexin V cytofluorimetric analysis (reference value: 69.9%). The format is functional. As to conditions: read-out: Activity.
Data set [6] deals with AGS. In words: Induction of apoptosis in human AGS cells assessed as viable cells at 5 uM measured after 48 hrs in presence of FPR1 antagonist, fMLF by Muse Annexin V cytofluorimetric analysis (reference value: 87.1%). It counts as functional. As to conditions: read-out: Activity.
Data set [7] concerns AGS. In words: Induction of apoptosis in human AGS cells assessed as viable cells at 5 uM measured after 48 hrs by Muse Annexin V cytofluorimetric analysis (reference value: 85.9%). The note with it: read-out: Activity. It counts as functional.
In data set [8] the test system is NCI-N87. The experiment in a line: Induction of apoptosis in human NCI-N87 cells assessed as viable cells at 5 uM measured after 48 hrs in presence of FPR1 antagonist, fMLF by Muse Annexin V cytofluorimetric analysis (reference value: […]%). As to conditions: read-out: Activity. The format is functional.

Active and inactive are the calls of the source. The rule behind the calls is not given here.

For orientation: IC50 means the concentration that inhibits the measured activity by half.

As to `Cc1oc2cc(OC(=O)c3ccco3)ccc2c(=O)c1-c1nc2ccccc2n1C`, the IC50 in data set [1] turned out to be 3100 nM. Regarding `CCCCc1cc2c(=O)c(-c3ccccc3OC)c(C)oc2cc1OC(C)=O`, the inhibition result in data set [2] is “inactive”. In the case of `CCCCCCc1cc2c(=O)c(-c3ccccc3OC)c(C(F)(F)F)oc2cc1OC(C)=O`, in data set [3], the remaining at 0.5 h, 10 µM came out at 0%. For the molecule `COc1ccccc1-c1c(C(F)(F)F)oc2cc(OC(=O)c3ccco3)ccc2c1=O`, the IC50 in data set [1] came to 440 nM. Regarding `CCCCCCC(=O)Oc1cc2oc(C)c(-c3cccc(OC)c3)c(=O)c2cc1C`, in data set [2], the inhibition entry was “inactive”. Regarding `COc1ccccc1-c1c(C)oc2cc(OC(=O)c3ccco3)ccc2c1=O`, in data set [1], the concentration for half-maximal inhibition (IC50) was found to be 1900 nM. For `CCCCCCc1cc2c(=O)c(-c3cccc(OC)c3)c(C(F)(F)F)oc2cc1OC(C)=O`, the inhibition entry in data set [2] was “inactive”.

`CCCc1cc2c(=O)c(-c3ccccc3OC)c(C)oc2cc1OC(=O)N(C)C`: the inhibition entry in data set [2] was “inactive”. Consider `CCc1cc2c(=O)c(-c3nc4ccccc4n3C)c(C)oc2cc1OC(C)=O`, for which the IC50 in data set [1] was 1400 nM. Take `CCCCCCc1cc2c(=O)c(-c3ccccc3OC)c(C)oc2cc1OC(=O)N(C)C`: in data set [2], the inhibition entry is “inactive”. Besides, the IC50 entry in data set [4] is reported as “Not Active”. Take `CCCCCCc1cc2c(=O)c(-c3nc4ccccc4n3C)c(C)oc2cc1OC(C)=O`: the IC50 in data set [1] came out at 310 nM.

On to `CCCc1cc2c(=O)c(-c3cccc(OC)c3)c(C)oc2cc1OC(C)=O`, for which the inhibition result in data set [2] was “inactive”. For the molecule `CCCCCCc1cc2c(=O)c(-c3ccccc3OC)c(C)oc2cc1OC(C)=O`, the viability at 5 µM in data set [5] turned out to be 45.1%; in data set [6], 46.9%; in data set [7], 52%; in data set [8], 45.5%. In addition, the remaining at 0.5 h, 10 µM in data set [3] was found to be 0%.

Regarding `CCCCCCC(=O)Oc1cc2oc(C)c(-c3ccccc3OC)c(=O)c2cc1C`, the remaining at 0.5 h, 10 µM in data set [3] was found to be 0%. Consider `CCCCCc1cc2c(=O)c(-c3ccccc3OC)c(C)oc2cc1OC(C)=O`, for which the inhibition entry in data set [2] was “inactive”.

For the origin of these results see ChEMBL document CHEMBL5335795, “Development of potent isoflavone-based formyl peptide receptor 1 (FPR1) antagonists and their effects in gastric cancer cell models” (Eur J Med Chem, 2023).
